# Molecular target: EBI2 (Homo sapiens, UniProt P32249)
# Test: Cell-based luminescent assay (EBI2 modulation)
# Details: not given
# In short: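 Cells plated overnight at 37° C, then exposed to compound at 4-5 uM final with 80 nM 7a,25-OHC agonist for 60 min at 37° C. Luminescence read after 60 min detection at 25° C in the dark; values normalized to neutral and stimulator controls and plate-pattern corrected.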
# Chain of EBI2 (P32249 whole entry): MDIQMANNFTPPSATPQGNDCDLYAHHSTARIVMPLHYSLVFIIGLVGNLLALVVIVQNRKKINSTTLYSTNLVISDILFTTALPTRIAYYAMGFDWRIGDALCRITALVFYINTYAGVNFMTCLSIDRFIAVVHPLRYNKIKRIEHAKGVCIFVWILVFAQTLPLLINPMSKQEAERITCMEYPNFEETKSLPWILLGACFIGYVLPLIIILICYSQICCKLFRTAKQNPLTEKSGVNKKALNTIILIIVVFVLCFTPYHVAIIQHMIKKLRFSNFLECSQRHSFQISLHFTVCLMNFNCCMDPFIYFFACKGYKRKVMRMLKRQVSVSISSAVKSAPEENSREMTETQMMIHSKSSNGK
row,Compound,IC50 [nM]
1,"O=C(/C=C/c1ccc(Br)cc1)N1CCN(Cc2ccc(Cl)cc2)CC1 [Compound D1, (E)-3-(4-bromophenyl)-1-(4-(4-chlorobenzyl)piperazin-1-yl) prop-2-en-1-one]",< 100

# Same assay, conditions: cell-based luminescence; 7a,25-OHC final assay concentration 80 nM; 60 minutes incubation; read-out: IC50
row,Compound,IC50 [nM]
1,"O=C(C=Cc1ccc2c(c1)OCO2)N1CCN(C(=O)c2ccc(F)cc2C(F)(F)F)CC1 [Compound C479, 3-(2H-benzo[3,4-d]1,3-dioxolan-5-yl)-1-(4-{[4-fluoro-2-(trifluoromethyl)phenyl]carbonyl}piperazinyl)prop-2-en-1-one]",100 to 500
2,"Cc1ccccc1/C=C/C(=O)N1CCN(S(=O)(=O)c2ccc(C(C)(C)C)cc2)CC1 [Compound C480, (2E)-1-(4-{[4-(tert-butyl)phenyl]sulfonyl}piperazinyl)-3-(2-methylphenyl)prop-2-en-1-one]",100 to 500
3,"O=C(/C=C/c1ccc(Cl)c(Cl)c1)N1CCN(Cc2ccc(C(F)(F)F)cc2)CC1 [Compound D3, (2E)-3-(3,4-dichlorophenyl)-1-(4-{[4-(trifluoromethyl)phenyl]methyl}piperazinyl)prop-2-en-1-one]",< 100
4,"Cc1cc(C)c(S(=O)(=O)N2CCN(C(=O)/C=C/c3ccc(Br)cc3)CC2)c(C)c1 [Compound E1, (2E)-3-(4-bromophenyl)-1-{4-[(2,4,6-trimethylphenyl)sulfonyl]piperazinyl} prop-2-en-1-one]",< 100
5,"O=C(/C=C/c1ccc(F)cc1)N1CCN(S(=O)(=O)c2ccc(Br)cc2)CC1 [Compound E2, (2E)-1-{4-[(4-bromophenyl)sulfonyl]piperazinyl}-3-(4-fluorophenyl) prop-2-en-1-one]",< 100
6,"O=C(/C=C/c1ccc(F)cc1)N1CCN(S(=O)(=O)CCc2ccccc2)CC1 [Compound E3, (2E)-3-(4-fluorophenyl)-1-{4-[(2-phenylethyl)sulfonyl]piperazinyl}prop-2-en-1-one]",< 100
7,"COc1ccc(/C=C/C(=O)N2CCN(S(=O)(=O)c3ccccc3)CC2)cc1 [Compound E4, (2E)-3-(4-methoxyphenyl)-1-[4-(phenylsulfonyl)piperazinyl]prop-2-en-1-one]",< 100
8,"CC(=O)c1ccc(S(=O)(=O)N2CCN(C(=O)/C=C/c3ccc(Br)cc3F)CC2)cc1 [Compound E5, 4-({4-[(2E)-3-(4-bromo-2-fluorophenyl)prop-2-enoyl]piperazinyl}sulfonyl)-1-acetylbenzene]",< 100
9,O=C(/C=C/c1ccc(Br)cc1)N1CCC(CNCc2ccc(C(F)(F)F)cc2)CC1 [Compound F2],< 100
10,"O=C(NCC1CCN(C(=O)/C=C/c2ccc(Br)cc2)CC1)c1ccc(C(F)(F)F)cc1 [Compound F3, (E)-N-((1-(3-(4-bromophenyl)acryloyl)piperidin-4-yl)methyl)-4-(trifluoromethyl)benzamide]",< 100
11,(2E)-1-(4-{[4-(tert-butyl)phenyl]sulfonyl}piperazinyl)-3-(4-bromophenyl)prop-2-en-1-one [Compound C150],< 100
12,"(2E)-1-[4-(2-(1,3-dihydroisobenzofuran-5-yl)ethyl)piperazinyl]-3-phenylprop-2-en-1-one [Compound C362]",< 100
13,(2E)-1-[4-(diphenylmethyl)piperazinyl]-3-(4-bromo-2-fluorophenyl)prop-2-en-1-one [Compound C24],< 100
14,(2E)-1-[4-(diphenylmethyl)piperazinyl]-3-(4-bromophenyl)prop-2-en-1-one [Compound C27],< 100
15,"(2E)-1-[4-({[(3,5-difluorophenyl)methyl]amino}methyl)piperidyl]-3-(4-bromophenyl)prop-2-en-1-one [Compound C54]",< 100
16,(2E)-1-{4-[2-(2-fluorophenyl)ethyl]piperazinyl}-3-phenylprop-2-en-1-one [Compound C361],< 100
17,"(2E)-1-{4-[(2,4-difluorophenyl)carbonyl]piperazinyl}-3-(4-bromophenyl)prop-2-en-1-one [Compound C46]",< 100
18,"(2E)-1-{4-[(2,5-difluorophenyl)methyl]piperazinyl}-3-phenylprop-2-en-1-one [Compound C350]",< 100
19,"(2E)-1-{4-[(2,5-dimethoxyphenyl)sulfonyl]piperazinyl}-3-(4-fluorophenyl)prop-2-en-1-one [Compound C318]",< 100

row,Compound,IC50 [nM]
1,(2E)-1-{4-[(2-methylphenyl)methyl]piperazinyl}-3-phenylprop-2-en-1-one [Compound C394],100 to 500
2,"(2E)-1-{4-[(3,5-dimethylphenyl)methyl]piperazinyl}-3-phenylprop-2-en-1-one [Compound C340]",< 100
3,(2E)-1-{4-[(3-methoxyphenyl)methyl]piperazinyl}-3-phenylprop-2-en-1-one [Compound C379],< 100
4,(2E)-1-{4-[(3-nitrophenyl)methyl]piperazinyl}-3-phenylprop-2-en-1-one [Compound C387],< 100
5,(2E)-1-{4-[(4-bromophenyl)sulfonyl]piperazinyl}-3-(4-chloro-2-fluorophenyl)prop-2-en-1-one [Compound C388],< 100
6,(2E)-3-(4-bromophenyl)-1-(4-heptanoylpiperazinyl)prop-2-en-1-one [Compound C80],< 100
7,(2E)-3-(4-bromophenyl)-1-[4-({[(4-chlorophenyl)methyl]amino}methyl)piperidyl]prop-2-en-1-one [Compound C74],< 100
8,(2E)-3-(4-bromophenyl)-1-[4-({[(4-fluorophenyl)methyl]amino}methyl)piperidyl]prop-2-en-1-one [Compound C47],< 100
9,(2E)-3-(4-bromophenyl)-1-{4-[({[3-fluoro-4-(trifluoromethyl)phenyl]methyl}amino)methyl]piperidyl} prop-2-en-1-one [Compound C121],< 100
10,(2E)-3-(4-ethoxyphenyl)-1-[4-(phenylsulfonyl)piperazinyl]prop-2-en-1-one [Compound C313],< 100
11,(2E)-3-(4-fluorophenyl)-1-[4-(naphthylsulfonyl)piperazinyl]prop-2-en-1-one [Compound C345],< 100
12,(2E)-3-phenyl-1-[4-(4-pyridylmethyl)piperazinyl]prop-2-en-1-one [Compound C466],100 to 500
13,(2E)-3-phenyl-1-[4-benzylpiperazinyl]prop-2-en-1-one [Compound C337],< 100
14,(2E)-3-phenyl-1-piperazinylprop-2-en-1-one [Compound C444],100 to 500
15,N-(4-bromophenyl){4-[(5-chloroindol-2-yl)carbonyl]piperazinyl}carboxamide [Compound C445],100 to 500
16,benzo[d]furan-2-yl 4-(phenylethyl)piperazinyl ketone [Compound C405],100 to 500
17,piperazinyl 5-nitroindol-2-yl ketone [Compound C134],< 100
18,tert-butyl 4-(indol-2-ylcarbonyl)piperazinecarboxylate [Compound C414],100 to 500
19,{1-[(5-chloroindol-2-yl)carbonyl](4-piperidyl)}(4-chlorophenyl) [Compound C462],100 to 500

# — patent US9776979B2, “EBI2 modulators” (Sanford-Burnham Medical Research Institute, priority 2013, dated 2017)
